“Also recorded” adds a separate entry of the source.
Columns and labels:
[1] = test system: HEK-293T human normal embryonic kidney cell line; test: MTT toxicity, HEK-293T normal cells; format: cell-based; details: 72 h; for IC50: MTT, normal cell line, 200, 100, 50, 25 μM tested; for toxic effect on healthy HEK-293T cells (in words): up to 200 μM
Method: (§1) Compounds (1–15) were screened in two cancer and normal cell lines at concentrations of 200, 100, 50, and 25 μM for 72 h.
(§2) This section of the study was performed following the procedure described in our previous study.[51],[52] The human lung cancer cell line (A549; ATCC CCL-185), human liver cancer cell line (HepG2; ATCC HB-8065), and human normal embryonic kidney cell line (HEK-293T) were cultured in high-glucose Dulbecco’s modified Eagle’s medium supplemented with 10% fetal bovine serum and 1% glutamax. Cells were seeded at a density of 5 × 10^3 cells/well in sterile 96-well plates and incubated for 24 h. Following incubation, the cells were exposed to the prepared compounds (1–15) and cisplatin at 200, 100, 50, and 25 μM concentrations for 72 h. After the incubation period, the medium in the plates was carefully removed and the prepared MTT solution was added to each well of the plates. The plates were incubated for 2 h in an incubator. Absorbance was measured using an Epoch 2 ELISA plate reader at 590 nm. The IC50 values were calculated using GraphPad Prism Software version 5.

[2] = test system: HepG2 human liver epithelial carcinoma cell line; test: MTT cytotoxicity, HepG2 liver cancer cells; format: cell-based; details: for IC50: Homo sapiens, HepG2, MTT, 72 h, 200, 100, 50, 25 μM tested; for cytotoxic effect on HepG2 liver cancer cell line (in words) / selectivity index (SI), HEK-293T IC50 / HepG2 IC50: 72 h; for cytotoxic effect on HepG2 liver cancer cell line (in words): up to 200 μM; for selectivity index (SI), HEK-293T IC50 / HepG2 IC50: IC50 >200 taken as 200
Method: as §1, §2

[3] = test system: A549 human lung epithelial carcinoma cell line; test: MTT cytotoxicity, A549 lung cancer cells; format: cell-based; details: for cytotoxic effect on A549 lung cancer cell line (in words) / selectivity index (SI), HEK-293T IC50 divided by A549 IC50: 72 h; for cytotoxic effect on A549 lung cancer cell line (in words): up to 200 μM; for IC50: MTT, 72 h, 200, 100, 50, 25 μM tested; for selectivity index (SI), HEK-293T IC50 divided by A549 IC50: IC50 >200 taken as 200
Method: as §1, §2

SMILES | melting point | IC50 ([1]; Homo sapiens, HEK-293T) | IC50 [2] | cytotoxic effect on A549 lung cancer cell line (in words) [3] | IC50 ([3]; Homo sapiens, A549) | toxic effect on healthy HEK-293T cells (in words) [1] | selectivity index (SI), HEK-293T IC50 divided by A549 IC50 [3] | cytotoxic effect on HepG2 liver cancer cell line (in words) [2] | selectivity index (SI), HEK-293T IC50 / HepG2 IC50 [2] | IC50 [1] | IC50 [3]
NN=C1C(=O)Nc2ccc(F)cc21 [Compound 1, 5-Fluoro-3-hydrazonoindolin-2-one] | 203 to 204 °C | > 200 µM | > 200 µM | not active | > 200 µM | – | – | – | – | – | –
O=C1Nc2ccc(F)cc2C1=NN=Cc1ccccc1 [Compound 2, 5-Fluoro-3-{[benzylidene]hydrazinylidene}indolin-2-one] | 229 to 230 °C | > 200 µM | > 200 µM | not active | > 200 µM | – | – | – | – | – | –
O=C1Nc2ccc(F)cc2C1=NN=Cc1ccc(Br)cc1 [Compound 3, 5-Fluoro-3-{[4-bromobenzylidene]hydrazinylidene}indolin-2-one] | 262 to 263 °C | 25 µM | > 200 µM | cytotoxic effect | 186 µM | highly toxic effects | 0.13 | – | – | – | –
O=C1Nc2ccc(F)cc2C1=NN=Cc1ccc(Cl)cc1 [Compound 4, 5-Fluoro-3-{[4-chlorobenzylidene]hydrazinylidene}indolin-2-one] | 257 to 258 °C | 29.3 µM | > 200 µM | not active | > 200 µM | toxic effect; also recorded: highly toxic effects | – | – | – | – | –
O=C1Nc2ccc(F)cc2C1=NN=Cc1ccc(F)cc1 [Compound 5, 5-Fluoro-3-{[4-fluorobenzylidene]hydrazinylidene}indolin-2-one] | 246 to 248 °C | 193 µM | 108 µM | not active | > 200 µM | did not show high toxicity | – | cytotoxic effects | 1.78 | – | –
Cc1ccc(C=NN=C2C(=O)Nc3ccc(F)cc32)cc1 [Compound 6, 5-Fluoro-3-{[4-methylbenzylidene]hydrazinylidene}indolin-2-one] | 241 to 242 °C | 140 µM | > 200 µM | not active | > 200 µM | toxic effect | – | – | – | – | –
COc1ccc(C=NN=C2C(=O)Nc3ccc(F)cc32)cc1 [Compound 7, 5-Fluoro-3-{[4-methoxybenzylidene]hydrazinylidene}indolin-2-one] | 247 to 248 °C | 197 µM | 153 µM | not active | > 200 µM | – | – | cytotoxic effects | 1.29 | – | –
N.N.[Cl][Pt][Cl] [cisplatin, reference compound] | – | – | – | – | – | – | – | – | – | 7.48 µM | 4.19 µM

The next lines start with results.

melting point | SMILES | IC50 ([1]; Homo sapiens, HEK-293T) | IC50 [2] | cytotoxic effect on A549 lung cancer cell line (in words) [3] | IC50 ([3]; Homo sapiens, A549) | toxic effect on healthy HEK-293T cells (in words) [1] | selectivity index (SI), HEK-293T IC50 divided by A549 IC50 [3] | cytotoxic effect on HepG2 liver cancer cell line (in words) [2] | selectivity index (SI), HEK-293T IC50 / HepG2 IC50 [2] | IC50 [1] | IC50 [3]
249 to 251 °C | O=C1Nc2ccc(F)cc2C1=NN=Cc1ccc([N+](=O)[O-])cc1 [Compound 8, 5-Fluoro-3-{[4-nitrobenzylidene]hydrazinylidene}indolin-2-one] | 6.04 µM | 48.4 µM | cytotoxic effect | 42.4 µM | – | 0.14 | cytotoxic effects | 0.12 | – | –
252 to 253 °C | O=C1Nc2ccc(F)cc2C1=NN=Cc1ccccc1O [Compound 9, 5-Fluoro-3-{[2-hydroxybenzylidene]hydrazinylidene}indolin-2-one] | 142 µM | > 200 µM | not active | > 200 µM | toxic effect | – | – | – | – | –
260 to 261 °C | O=C1Nc2ccc(F)cc2C1=NN=Cc1cccc(O)c1 [Compound 10, 5-Fluoro-3-{[3-hydroxybenzylidene]hydrazinylidene}indolin-2-one] | 87 µM | 166 µM | cytotoxic effect | 180 µM | – | 0.48 | cytotoxic effects | 0.52 | – | –
275 to 276 °C | O=C1Nc2ccc(F)cc2C1=NN=Cc1ccc(O)cc1 [Compound 11, 5-Fluoro-3-{[4-hydroxybenzylidene]hydrazinylidene}indolin-2-one] | > 200 µM | > 200 µM | not active | > 200 µM | – | – | – | – | – | –
244 to 246 °C | COc1cccc(C=NN=C2C(=O)Nc3ccc(F)cc32)c1O [Compound 12, 5-Fluoro-3-{[2-hydroxy-3-methoxybenzylidene]hydrazinylidene}indolin-2-one] | > 200 µM | > 200 µM | cytotoxic effect | 150 µM | – | > 1.33 | – | – | – | –
257 to 258 °C | COc1ccc(C=NN=C2C(=O)Nc3ccc(F)cc32)c(O)c1 [Compound 13, 5-Fluoro-3-{[2-hydroxy-4-methoxybenzylidene]hydrazinylidene}indolin-2-one] | > 200 µM | > 200 µM | not active | > 200 µM | – | – | – | – | – | –
263 to 264 °C | COc1ccc(C=NN=C2C(=O)Nc3ccc(F)cc32)cc1O [Compound 14, 5-Fluoro-3-{[3-hydroxy-4-methoxybenzylidene]hydrazinylidene}indolin-2-one] | > 200 µM | > 200 µM | cytotoxic effect | 115 µM | – | > 1.73 | – | – | – | –
232 to 233 °C | COc1cc(C=NN=C2C(=O)Nc3ccc(F)cc32)ccc1O [Compound 15, 5-Fluoro-3-{[4-hydroxy-3-methoxybenzylidene]hydrazinylidene}indolin-2-one] | > 200 µM | > 200 µM | not active | > 200 µM | – | – | – | – | – | –
